{"source": "patent US5672603A", "about": "“Apoptosis regulating composition” (Otsuka Pharmaceutical Co., Ltd., priority 1991, dated 1997)", "key": {"[1]": {"test_system": "CMK cells (platelet-associated antigen, glycoprotein IIb/IIIa)", "experiment": "Expression of platelet-associated antigen of CMK cells (Plt-1 antibody)", "format": "cell-based, human", "conditions": "30 μg/ml", "method": "Compound 1 was dissolved in 1N hydrochloric acid and diluted with fetal calf serum (FCS, Gibco) to give a 1 mg/ml solution. This solution was added to RPMI-1640 medium (Flow Laboratories) supplemented 10% FCS and the mixture was neutralized with 1N NaOH and adjusted to a concentration of 30 μg/ml before use.\nCMK cells were established by T. Sato et al. from patients with acute megakaryocytic leukemia. They are known to react with anti-platelet antibodies (anti-glycoprotein IIb/IIIa antibody, anti-glycoprotein Ib antibody and Plt-1 antibody). Moreover, it has mega-karyocyte-like properties, such as formation of α granules and a demarcation membrane in the cytoplasm. Therefore, these cells have been used for the analysis of the growth and differentiation of megakaryocytes [Sato, T., et al., Exp. Hematol., 15, 495 (1987); Sunami, S., et al., Blood, 70., 368 (1987); Komatsu, N., et al., Blood, 74(1), 42-48 (1989); Fuse, A., et al., British J. Haematology, 77, 32-36 (1991); Acta Haematologia Japonica 53(2), 294-295, 317-318 (1990)].\nCMK cells were supplied by Dr. Takelruki Sato at the Department of Pediatrics, Chiba University School of Medicine. The cells, 5×10^4 cells/ml, were cultured in RPMI-1640 medium supplemented 10% FCS and subcultured every four days.\nCMK cells, 1×10^5 cells/ml, were incubated in 10% FCS-added RPMI-1640 medium, containing 30 μg/ml of Compound 1, for 4 days and the expression of platelet-associated antigen on the cell surface was determined by flow cytometry (Coulter) using FITC-labeled Plt-1 antibody (Coulter). The medium containing no Compound 1 was used as a solvent control.\nFor the analysis of cell surface antigen, 1×10^6 cells/100 μl of CFIK cells were taken into a tube (Fischer) and reacted with 5 μl of FITC-labeled Plt-1 antibody at 4° C. for 30 minutes. The reaction mixture was washed three times with phosphate buffer containing 0.1% bovine serum albumin and determined for the percentage positive cells and fluorescence intensity.\nThe above-mentioned Plt-1 antibody (Coulter) is an antibody recognizing the platelet-associated antigen, glycoprotein IIb/IIIa and has been reported to increase with differentiation or maturation of CMK cells [Komatsu, N., et al., Blood, 74(1), 42-48 (1989)]."}, "B16 melanoma cells": {"test_system": "B16 melanoma cells", "experiment": "Effect on experimental model of pulmonary metastasis of B16 melanoma cells", "format": "in vivo, mouse (C57BL/6 mice)", "conditions": "for No. of colonies in lungs, Mean: control 86.7; for No. of colonies in lungs, individual mice: 4 days", "method": "B16 mouse melanoma cells [Koren, S. and Fleischmann, W. R., J. Interferon Research, i, 473-482 (198)], 2×10^6 cells, were suspended in Eagle's MEM medium (Nissui Pharmaceutical Co., Ltd.) supplemented with 10% FBS (Gibco) to which 3 or 10 μg/ml of Compound 1 was previously added or not added. The suspension was cultured in a 75-cm^2 flask (Corning) in an incubator (National Appliance Model 15300) at 37° C. under 5% carbon dioxide for 4 days. Then, the cells were washed with Dulbecco's PBS solution (Nissui pharmaceutical Co., Ltd.), and 0.05% trypsin (Flow Laboratories) was added to detach the cells from the flask. The cells were washed centrifugally (Hitachi 05PR-22, 1200 rpm, 5 minutes) twice and after addition of 0.2% trypan blue (Wako Pure Chemical Industries Ltd.), viable cells were counted using a hemocytometer (No. J7796, Kayagaki Works) and the cells were diluted with Hank's solution (Flow Laboratories)to a concentration of 5×10^6 cells/ml.\nThe cells obtained as above were transplanted, in a population of 3×10^5 cells each, into groups of 7 C57BL/6 mice (7 weeks old, female, purchased from Charles River Japan, Inc.) through the tail vein. Twelve days later, the mice were killed by cervical dislocation and the number of colonies metastatized to the lungs was determined."}, "MRL/Mp-1 pr/1 pr mice": {"test_system": "MRL/Mp-1 pr/1 pr mice", "experiment": "Therapeutic effect on autoimmune disease in MRL mice", "format": "in vivo", "conditions": "300 mg/kg oral", "from_the_text": "Groups of five female MRL/Mp-1 pr/1 pr mice (purchased at 7 weeks of age from Charles River Japan, Inc.) were used at the age of 19 weeks.\nMice of the above strain are known to spontaneously develop autoimmune diseases such as human systemic lupus erythematosus (SLE)-like immune complex glomerulonephritis, lymphoma, vasculitis and polyarthritis (Theofilopolos, A. and Dixon, F. J., Adv. Immunology, 37, 269 (1985); Murphy, E. D., Roths, J. B., Autoimmunity and lymphoproliferation, Elsevier North Holland, N.Y., 207-221 (1978); Taniguchi, Y., Gendai Iryo, 21, 131 (1989); Abe, C.).\nMice in both the Compound 1-treated group and the control group (untreated group) were given a mouse diet (Oriental Yeast) and water.\nCompound 1 was used as suspended in 0.5% carboxymethytcellulose (CMC, Dai-ichi Kogyo Seiyaku Co., Ltd.) solution.\nCompound 1 was administered by oral garage in a dose of 300 mg/kg body weight daily from the age of 19 weeks to the age of 25 weeks according to the 5-day administration and 2-day cessation schedule (Compound 1-treated group).\nMice in the respective groups were examined for changes in urinary protein, lymphoma diameter, vasculitis of the auricle, and loss of hair."}, "[2]": {"test_system": "Human stomach cancer cells (KATO-III)", "experiment": "Cancer cell growth inhibition, KATO-III", "format": "cell-based", "conditions": "control 100", "method": "The cell concentration was adjusted to 1×10^5 cells/ml using the same medium as used above in (1).\nTest compound 1 was dissolved in acetic acid, followed by dilution with the same medium as used above in (1) and neutralization with 2N NaOH to give final concentrations of 100 μg/ml, 10 μg/ml and 1.0 μg/ml.\na) The test compound solutions prepared as described above under (3) were added to the HL-60 cell suspension prepared as described above under (1) to final concentrations of 10 μg/ml and 1.0 μg/ml. Using 12-well culture plates (Costar), cultivation was conducted in a 5% carbon dioxide gas incubator maintained at 37° C. for 3 to 4 days. The test compound-free medium was used as a control. Thereafter, the cell suspension in each well was sampled and mixed with 0.2% trypan blue-containing phosphate buffer, and unstained viable cells were counted under a microscope. Based on the counting result, the viable cell concentration was readjusted to 1×10^5 cells/ml, and cultivation was continued under the same conditions.\nKATO-III cells prepared as described above under (2) were cultivated in the same manner."}}, "note": "“And” between values parts separate entries of the source, which are not always exact repeats. Equal entries are not always repeated. “Also recorded” adds a separate entry of the source."}
{"molecule": "COc1ccc(C(=O)N2CCN(c3ccc4c(c3)CCC(=O)N4)CC2)cc1OC", "note": "[Compound 1, 6-[4-(3,4-Dimethoxybenzoyl)-1-piperazinyl]-3,4-dihydrocarbostyril]", "values": [{"measurement": "Change in percentage of Plt-1 positive cells (in words)", "setting": "[1]", "value": "no change in the percentage of positive cells"}, {"measurement": "Cell count", "setting": "[1]; 4 days, solvent control 5.8", "value": "3.2 10^5 /ml"}, {"measurement": "Plt-1 percentage positive cells (%)", "setting": "[1]; 4 days, solvent control 96.1", "value": 96.5, "unit": "%"}, {"measurement": "activity at 30 µg/mL", "setting": "[1]; Homo sapiens, CMK, 96 h, 4 days, solvent control 100, read-out: Plt-1 mean fluorescence intensity (%)", "value": 192, "unit": "%"}, {"measurement": "fold induction at 30 µg/mL", "setting": "[1]; Homo sapiens, CMK, read-out: Increase in expression of platelet-associated antigen", "value": 2}, {"measurement": "No. of colonies in lungs, Mean", "setting": "B16 melanoma cells; 3 μg/ml, *P < 0.05", "value": 10.0, "unit": "colonies"}, {"measurement": "No. of colonies in lungs, Mean", "setting": "B16 melanoma cells; 10 μg/ml", "value": 34.7, "unit": "colonies"}, {"measurement": "Inhibition of pulmonary metastasis (in words)", "setting": "B16 melanoma cells; 3 or 10 μg/ml", "value": "evident inhibition of pulmonary metastasis"}, {"measurement": "No. of colonies in lungs, individual mice", "setting": "B16 melanoma cells; cells pre-incubated with 3 μg/ml", "value": "14 colonies and 7 colonies and 11 colonies and 6 colonies and 8 colonies and 24 colonies and 0 colonies"}, {"measurement": "No. of colonies in lungs, individual mice", "setting": "B16 melanoma cells; cells pre-incubated with 10 μg/ml", "value": "17 colonies and 43 colonies (2×) and 65 colonies and 7 colonies and 46 colonies and 22 colonies"}, {"measurement": "Urinary protein", "setting": "MRL/Mp-1 pr/1 pr mice; 19 to 25 weeks of age, vs control", "value": "tendency of inhibition of the increase in urinary protein"}, {"measurement": "Loss of hair", "setting": "MRL/Mp-1 pr/1 pr mice; FIG. 8, vs control", "value": "improvements in vasculitis and loss of hair"}, {"measurement": "Vasculitis", "setting": "MRL/Mp-1 pr/1 pr mice; FIG. 8, vs control", "value": "improvements in vasculitis"}, {"measurement": "Lymphoma size, diameter", "setting": "MRL/Mp-1 pr/1 pr mice; control 9.0±0.8 mm", "value": "7.8±1.3", "unit": "mm"}, {"measurement": "Lymphoma (in words)", "setting": "MRL/Mp-1 pr/1 pr mice; vs control", "value": "enlargement of lymphoma was slightly inhibited; also recorded: reduction in lymphoma"}, {"measurement": "activity at 1 µg/mL", "setting": "[2]; 576 h, on day 24, 1.0 μg/ml", "value": "88 ± 2.3", "unit": "%"}, {"measurement": "activity at 10 µg/mL", "setting": "[2]; 576 h, on day 24, 10 μg/ml", "value": "61 ± 1.5", "unit": "%"}, {"measurement": "activity at 1 µg/mL", "setting": "[2]; 792 h, on day 33, 1.0 μg/ml", "value": 0, "unit": "%"}, {"measurement": "activity at 10 µg/mL", "setting": "[2]; 792 h, on day 33, 10 μg/ml", "value": 0, "unit": "%"}]}
